According to patent US9833455B2, “Preparation and methods of use for ortho-aryl 5-membered heteroaryl-carboxamide containing multi-targeted kinase inhibitors” (Spacefill Enterprises LLC, priority 2011, dated 2017):
Read-outs that look alike come from different tables or passages of the source.

Experiments:
Assay in all cases: Reaction Biology P33 radiolabeled kinase assay, IC50 and time dependence
Assay type in all cases: biochemical
FMS = FMS (Homo sapiens, UniProt P07333); settings: for IC50: ATP 10 uM, read-out: Compound IC50* FMS
Method: (§1) “Inhibiting kinase activity” means to decrease the production of an phosphor-peptide by a particular kinase that can be separated by analytical techniques. For example, a comprehensive platform of kinase, protease, phosphatase and epigenetic assays that utilizes cutting-edge microfluidics and informatics tools to provide accurate and rapid results. Profiling data in this application were determined using these techniques at Nanosyn Inc. IC50 data were provided by Reaction Biology Inc using a P33 radiolabeled kinase assay.
(§2) The observation of potency and isoform selectivity with time-dependency for PI3K-γ appears to be unprecedented in the literature. In addition, these activities combined with inhibition of p38-α, Raf-1, DDR and CSF-1R, would be complimentary and potentially synergistic activities for both the treatment of certain inflammation based conditions and cancers.

ROS/ROS1 = biological target: T1, ROS/ROS1 (Homo sapiens, UniProt P08922); settings: for IC50: ATP 10 uM, read-out: Compound IC50* ROS/ROS1
T1 construct: purchased Reaction Biology Inc (contract assay)
Method: as §1, §2

P38b/MAPK11 = biological target: T2, P38b/MAPK11 (Homo sapiens, UniProt Q15759); settings: for IC50: ATP 10 uM, read-out: Compound IC50* P38b/MAPK11
T2 construct: purchased Reaction Biology Inc (contract assay)
Method: as §1, §2

PDGFR-β = PDGFR-β (Homo sapiens, UniProt P09619); settings: for IC50: ATP 10 uM, read-out: Compound IC50* PDGFR-β
Method: as §1, §2

PI3K-γ = biological target: T3, PI3K-γ (Homo sapiens, UniProt P48736); settings: for IC50: ATP 10 uM, read-out: Compound IC50* PI3K-γ
T3 construct: purchased Reaction Biology Inc (contract assay)
Method: as §1, §2

PI3K-α = PI3K-α (Homo sapiens, UniProt P42336); settings: for IC50: ATP 10 uM, read-out: Compound IC50* PI3K-α
Method: as §1, §2

BRAF (V599E) = biological target: T4, BRAF (V599E) (Homo sapiens, UniProt P15056, V600E); settings: for IC50: ATP 10 uM, read-out: Compound IC50* BRAF (V599E)
T4 construct: purchased Reaction Biology Inc (contract assay)
Method: as §1, §2

PI3K-β = biological target: T5, PI3K-β (Homo sapiens, UniProt P42338); settings: for IC50: ATP 10 uM, read-out: Compound IC50* PI3K-β
T5 construct: purchased Reaction Biology Inc (contract assay)
Method: as §1, §2

ARAF = biological target: T6, ARAF (Homo sapiens, UniProt P10398); settings: for IC50: ATP 10 uM, read-out: Compound IC50* ARAF
T6 construct: purchased Reaction Biology Inc (contract assay)
T6 sequence (P10398 1-606): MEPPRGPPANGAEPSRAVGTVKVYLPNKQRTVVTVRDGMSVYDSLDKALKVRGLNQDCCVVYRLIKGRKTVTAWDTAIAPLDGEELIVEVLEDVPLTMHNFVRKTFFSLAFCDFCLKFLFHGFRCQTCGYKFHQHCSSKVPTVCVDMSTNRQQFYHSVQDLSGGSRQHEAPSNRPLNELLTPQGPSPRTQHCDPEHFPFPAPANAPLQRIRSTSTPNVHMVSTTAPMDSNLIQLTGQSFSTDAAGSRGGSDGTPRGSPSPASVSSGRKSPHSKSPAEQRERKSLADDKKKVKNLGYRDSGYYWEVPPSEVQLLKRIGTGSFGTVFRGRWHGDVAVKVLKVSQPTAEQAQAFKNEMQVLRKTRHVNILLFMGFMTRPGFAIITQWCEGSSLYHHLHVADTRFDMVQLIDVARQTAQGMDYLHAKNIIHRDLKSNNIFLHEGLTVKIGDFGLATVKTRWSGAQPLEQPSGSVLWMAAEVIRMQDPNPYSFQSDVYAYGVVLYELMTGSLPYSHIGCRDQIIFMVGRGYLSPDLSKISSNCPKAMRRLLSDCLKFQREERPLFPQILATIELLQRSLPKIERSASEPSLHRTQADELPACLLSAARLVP
Method: as §1, §2

RAF1 = biological target: T7, RAF1 (Homo sapiens, UniProt P04049); settings: for IC50: ATP 10 uM, read-out: Compound IC50* RAF1
T7 construct: literature Ambit Biosciences
Method: as §1, §2

PI3K-δ = biological target: T8, PI3K-δ (Homo sapiens, UniProt O00329); settings: for IC50: ATP 10 uM, read-out: Compound IC50* PI3K-δ
T8 construct: purchased Reaction Biology Inc (contract assay)
Method: as §1, §2

P38a/MAPK14 = biological target: T9, P38a/MAPK14 (Homo sapiens, UniProt Q16539); settings: for IC50: ATP 10 uM, read-out: Compound IC50* P38a/MAPK14
T9 construct: purchased Reaction Biology Inc (contract assay)
Method: as §1, §2

c-Kit = biological target: T10, c-Kit (Homo sapiens, UniProt P10721); settings: for IC50: ATP 10 uM, read-out: Compound IC50* c-Kit
T10 construct: purchased Reaction Biology Inc (contract assay)
Method: as §1, §2

TNK1 = biological target: T11, TNK1 (Homo sapiens, UniProt Q13470); settings: for IC50: ATP 10 uM, read-out: Compound IC50* TNK1
T11 construct: purchased Reaction Biology Inc (contract assay)
T11 sequence (Q13470 1-666): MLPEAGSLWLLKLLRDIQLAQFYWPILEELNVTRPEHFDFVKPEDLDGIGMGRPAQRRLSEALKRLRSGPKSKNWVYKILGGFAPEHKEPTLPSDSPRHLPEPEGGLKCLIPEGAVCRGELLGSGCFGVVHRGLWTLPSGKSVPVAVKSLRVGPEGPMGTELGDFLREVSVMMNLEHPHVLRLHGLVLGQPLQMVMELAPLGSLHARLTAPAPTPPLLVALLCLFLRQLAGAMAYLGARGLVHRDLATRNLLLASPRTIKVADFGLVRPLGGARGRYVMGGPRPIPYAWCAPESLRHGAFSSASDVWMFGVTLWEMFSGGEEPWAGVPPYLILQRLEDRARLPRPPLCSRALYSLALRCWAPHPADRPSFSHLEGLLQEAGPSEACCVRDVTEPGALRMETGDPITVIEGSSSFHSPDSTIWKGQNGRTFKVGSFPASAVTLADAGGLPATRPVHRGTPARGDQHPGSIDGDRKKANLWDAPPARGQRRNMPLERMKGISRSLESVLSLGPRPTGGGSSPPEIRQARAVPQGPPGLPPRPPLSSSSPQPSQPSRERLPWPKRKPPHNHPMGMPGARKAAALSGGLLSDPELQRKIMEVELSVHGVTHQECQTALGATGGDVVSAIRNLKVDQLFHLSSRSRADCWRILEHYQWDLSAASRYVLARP
Method: as §1, §2

T5 sequence (P42338 whole entry): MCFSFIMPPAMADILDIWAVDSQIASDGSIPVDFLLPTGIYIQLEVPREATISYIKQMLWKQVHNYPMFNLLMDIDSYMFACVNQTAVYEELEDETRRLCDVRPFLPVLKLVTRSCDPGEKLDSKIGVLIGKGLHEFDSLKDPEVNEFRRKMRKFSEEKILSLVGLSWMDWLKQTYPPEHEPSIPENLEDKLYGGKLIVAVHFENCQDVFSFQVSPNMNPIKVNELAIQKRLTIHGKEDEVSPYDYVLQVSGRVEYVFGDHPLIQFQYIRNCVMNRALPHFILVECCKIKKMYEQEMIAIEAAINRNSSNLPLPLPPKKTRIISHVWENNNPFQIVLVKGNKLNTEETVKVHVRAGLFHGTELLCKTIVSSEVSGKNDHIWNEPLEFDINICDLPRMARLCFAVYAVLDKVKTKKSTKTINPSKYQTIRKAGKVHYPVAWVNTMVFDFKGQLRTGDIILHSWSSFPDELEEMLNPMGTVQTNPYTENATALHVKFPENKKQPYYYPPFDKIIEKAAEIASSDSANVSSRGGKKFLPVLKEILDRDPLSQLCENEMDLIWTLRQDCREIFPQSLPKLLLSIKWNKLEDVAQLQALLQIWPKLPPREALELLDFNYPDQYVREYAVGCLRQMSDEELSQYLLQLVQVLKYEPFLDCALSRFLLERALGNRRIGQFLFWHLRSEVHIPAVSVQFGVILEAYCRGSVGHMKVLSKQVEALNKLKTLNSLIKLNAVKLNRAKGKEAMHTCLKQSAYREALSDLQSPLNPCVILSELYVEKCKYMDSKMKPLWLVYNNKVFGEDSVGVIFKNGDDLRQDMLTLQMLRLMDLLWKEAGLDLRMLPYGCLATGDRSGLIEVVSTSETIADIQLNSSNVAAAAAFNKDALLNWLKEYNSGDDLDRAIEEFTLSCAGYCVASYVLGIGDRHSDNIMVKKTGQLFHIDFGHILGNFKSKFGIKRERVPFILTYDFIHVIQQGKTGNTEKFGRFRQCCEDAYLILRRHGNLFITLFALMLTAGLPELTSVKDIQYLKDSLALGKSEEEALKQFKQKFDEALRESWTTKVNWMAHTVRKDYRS
T5 sequence (P27986 whole entry partner): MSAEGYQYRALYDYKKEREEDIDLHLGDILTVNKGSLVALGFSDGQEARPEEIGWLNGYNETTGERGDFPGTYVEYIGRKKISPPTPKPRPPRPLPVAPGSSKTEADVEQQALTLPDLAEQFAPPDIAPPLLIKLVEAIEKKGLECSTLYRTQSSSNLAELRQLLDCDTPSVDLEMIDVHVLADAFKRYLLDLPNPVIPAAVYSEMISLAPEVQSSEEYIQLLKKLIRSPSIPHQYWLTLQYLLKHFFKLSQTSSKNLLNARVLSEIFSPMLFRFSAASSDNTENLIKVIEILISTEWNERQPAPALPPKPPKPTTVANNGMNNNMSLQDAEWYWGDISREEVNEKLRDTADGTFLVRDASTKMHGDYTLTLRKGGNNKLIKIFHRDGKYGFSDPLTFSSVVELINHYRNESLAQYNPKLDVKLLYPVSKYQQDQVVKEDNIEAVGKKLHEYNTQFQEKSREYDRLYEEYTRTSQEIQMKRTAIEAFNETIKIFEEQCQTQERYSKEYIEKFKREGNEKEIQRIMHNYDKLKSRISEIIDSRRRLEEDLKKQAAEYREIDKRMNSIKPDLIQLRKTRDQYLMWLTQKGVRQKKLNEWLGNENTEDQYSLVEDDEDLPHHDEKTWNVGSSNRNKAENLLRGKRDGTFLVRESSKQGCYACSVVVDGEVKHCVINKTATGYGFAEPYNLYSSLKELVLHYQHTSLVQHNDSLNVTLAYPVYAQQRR
T1 sequence (P08922 28-2347): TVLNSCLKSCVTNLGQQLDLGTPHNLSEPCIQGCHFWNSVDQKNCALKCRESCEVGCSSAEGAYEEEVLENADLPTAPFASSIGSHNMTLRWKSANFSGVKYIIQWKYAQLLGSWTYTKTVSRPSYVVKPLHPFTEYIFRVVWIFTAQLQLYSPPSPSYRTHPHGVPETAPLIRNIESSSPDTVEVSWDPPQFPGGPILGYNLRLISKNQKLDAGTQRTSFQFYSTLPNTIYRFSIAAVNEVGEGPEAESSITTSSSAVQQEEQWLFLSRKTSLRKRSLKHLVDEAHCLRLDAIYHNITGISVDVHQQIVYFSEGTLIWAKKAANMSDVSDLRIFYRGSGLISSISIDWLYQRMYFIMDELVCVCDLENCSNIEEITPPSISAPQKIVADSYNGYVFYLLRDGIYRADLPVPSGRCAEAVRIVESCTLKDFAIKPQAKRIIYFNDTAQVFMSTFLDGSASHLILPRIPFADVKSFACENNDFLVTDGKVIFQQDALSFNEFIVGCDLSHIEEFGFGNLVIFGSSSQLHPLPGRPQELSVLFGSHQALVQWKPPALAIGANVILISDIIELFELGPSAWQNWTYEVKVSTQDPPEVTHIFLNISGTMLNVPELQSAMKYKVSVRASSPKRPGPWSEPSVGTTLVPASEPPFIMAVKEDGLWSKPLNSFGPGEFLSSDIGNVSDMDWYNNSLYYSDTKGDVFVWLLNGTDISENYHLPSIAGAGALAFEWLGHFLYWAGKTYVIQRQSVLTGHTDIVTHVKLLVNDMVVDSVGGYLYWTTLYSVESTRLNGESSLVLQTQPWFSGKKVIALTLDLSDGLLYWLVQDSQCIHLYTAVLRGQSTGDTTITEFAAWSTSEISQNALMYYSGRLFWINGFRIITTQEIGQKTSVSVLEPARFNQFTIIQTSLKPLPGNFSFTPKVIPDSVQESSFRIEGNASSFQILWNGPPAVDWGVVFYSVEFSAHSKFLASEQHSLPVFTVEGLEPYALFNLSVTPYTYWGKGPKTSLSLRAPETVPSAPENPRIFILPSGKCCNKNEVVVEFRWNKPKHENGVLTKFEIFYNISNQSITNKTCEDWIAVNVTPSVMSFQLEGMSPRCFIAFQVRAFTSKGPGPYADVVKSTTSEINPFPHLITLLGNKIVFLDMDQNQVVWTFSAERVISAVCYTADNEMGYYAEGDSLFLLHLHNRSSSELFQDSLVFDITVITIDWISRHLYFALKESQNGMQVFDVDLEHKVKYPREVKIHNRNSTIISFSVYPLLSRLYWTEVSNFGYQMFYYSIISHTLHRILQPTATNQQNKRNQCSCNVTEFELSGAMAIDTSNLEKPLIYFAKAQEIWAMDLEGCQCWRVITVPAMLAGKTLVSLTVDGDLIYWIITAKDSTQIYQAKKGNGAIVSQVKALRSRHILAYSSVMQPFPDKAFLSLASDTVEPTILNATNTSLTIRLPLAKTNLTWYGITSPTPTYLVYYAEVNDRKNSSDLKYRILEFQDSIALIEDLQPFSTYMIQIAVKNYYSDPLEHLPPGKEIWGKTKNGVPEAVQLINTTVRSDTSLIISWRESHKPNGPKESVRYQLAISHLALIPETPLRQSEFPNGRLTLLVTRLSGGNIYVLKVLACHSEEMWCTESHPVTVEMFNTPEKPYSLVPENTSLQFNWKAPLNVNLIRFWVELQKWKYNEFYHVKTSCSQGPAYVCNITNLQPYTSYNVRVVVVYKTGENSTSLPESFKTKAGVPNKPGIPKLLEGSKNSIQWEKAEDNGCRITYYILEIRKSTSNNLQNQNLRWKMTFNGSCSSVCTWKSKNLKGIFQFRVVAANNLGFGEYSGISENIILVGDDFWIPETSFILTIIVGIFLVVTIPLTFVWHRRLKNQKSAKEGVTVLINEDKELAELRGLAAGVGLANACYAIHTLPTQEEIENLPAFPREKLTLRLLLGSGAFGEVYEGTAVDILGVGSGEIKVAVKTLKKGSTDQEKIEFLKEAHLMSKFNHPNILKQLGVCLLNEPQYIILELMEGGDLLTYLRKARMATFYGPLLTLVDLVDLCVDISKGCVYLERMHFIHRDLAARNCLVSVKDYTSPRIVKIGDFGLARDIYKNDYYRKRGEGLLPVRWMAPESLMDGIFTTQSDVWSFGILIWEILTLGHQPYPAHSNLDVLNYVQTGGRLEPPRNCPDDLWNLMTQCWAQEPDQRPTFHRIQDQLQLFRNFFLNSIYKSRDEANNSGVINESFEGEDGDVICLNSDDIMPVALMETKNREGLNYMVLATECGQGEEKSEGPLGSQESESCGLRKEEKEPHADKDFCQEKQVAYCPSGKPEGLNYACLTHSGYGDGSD
T9 sequence (Q16539 whole entry): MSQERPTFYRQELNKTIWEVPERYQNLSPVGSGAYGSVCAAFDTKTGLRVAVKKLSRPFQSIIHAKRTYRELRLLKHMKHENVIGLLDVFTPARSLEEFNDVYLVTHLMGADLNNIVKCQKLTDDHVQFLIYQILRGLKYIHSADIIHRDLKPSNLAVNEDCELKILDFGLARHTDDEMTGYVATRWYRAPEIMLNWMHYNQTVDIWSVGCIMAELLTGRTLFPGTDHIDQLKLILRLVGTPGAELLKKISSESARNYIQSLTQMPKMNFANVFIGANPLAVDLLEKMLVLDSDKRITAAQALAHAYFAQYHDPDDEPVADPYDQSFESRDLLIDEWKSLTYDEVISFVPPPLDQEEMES
T7 sequence (P04049 whole entry): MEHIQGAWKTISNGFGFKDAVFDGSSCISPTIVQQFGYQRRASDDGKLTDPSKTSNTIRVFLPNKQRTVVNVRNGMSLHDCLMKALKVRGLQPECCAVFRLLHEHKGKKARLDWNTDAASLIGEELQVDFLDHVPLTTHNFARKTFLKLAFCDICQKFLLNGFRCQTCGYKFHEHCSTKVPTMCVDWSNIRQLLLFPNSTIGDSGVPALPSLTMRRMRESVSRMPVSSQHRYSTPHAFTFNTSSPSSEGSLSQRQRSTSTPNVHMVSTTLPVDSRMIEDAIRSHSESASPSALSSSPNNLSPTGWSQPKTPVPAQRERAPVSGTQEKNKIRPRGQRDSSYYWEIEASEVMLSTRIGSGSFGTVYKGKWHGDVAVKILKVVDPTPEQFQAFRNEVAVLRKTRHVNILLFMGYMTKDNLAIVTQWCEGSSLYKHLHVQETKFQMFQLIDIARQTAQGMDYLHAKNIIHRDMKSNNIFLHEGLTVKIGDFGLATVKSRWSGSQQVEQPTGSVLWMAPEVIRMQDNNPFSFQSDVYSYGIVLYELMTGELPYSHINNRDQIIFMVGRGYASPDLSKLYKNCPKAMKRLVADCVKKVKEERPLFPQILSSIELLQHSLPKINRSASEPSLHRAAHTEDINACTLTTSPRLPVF

Cc1ccc(NC(=O)c2nc(S(C)(=O)=O)[nH]c2-c2ccc(F)cc2)cc1Nc1nccc(-c2cccnc2)n1 [Inhibitor I-14, 3-(4-(pyridin-3-yl)-pyrimidinyl-2-yl)amino-4-methyl-analine, 5-(4-Fluorophenyl)-2-(methylsulfonyl)-1H-imidazole-4-carboxamide]
Time Dependence Observed? FMS (FMS; 15 vs 60 Min preincubation): No | IC50 (FMS; preincubation 15 Min): 220 nM | IC50 (FMS; preincubation 60 Min): 240 nM | Time Dependence Observed? ROS/ROS1 (ROS/ROS1; 15 vs 60 Min preincubation): No | IC50 (ROS/ROS1; preincubation 15 Min): 1250 nM | IC50 (ROS/ROS1; preincubation 60 Min): 1280 nM | Time Dependence Observed? P38b/MAPK11 (P38b/MAPK11; 15 vs 60 Min preincubation): No | IC50 (P38b/MAPK11; preincubation 15 Min): 1020 nM | IC50 (P38b/MAPK11; preincubation 60 Min): 1080 nM | Time Dependence Observed? PDGFR-β (PDGFR-β; 15 vs 60 Min preincubation): No | IC50 (PDGFR-β; preincubation 15 Min): 2010 nM | IC50 (PDGFR-β; preincubation 60 Min): 2510 nM | Time Dependence Observed? PI3K-γ (PI3K-γ; 15 vs 60 Min preincubation): Yes | IC50 (PI3K-γ; preincubation 15 Min): 127 nM | IC50 (PI3K-γ; preincubation 60 Min): 57.8 nM | Time Dependence Observed? PI3K-α (PI3K-α; 15 vs 60 Min preincubation): Yes | IC50 (PI3K-α; preincubation 15 Min): 899 nM | IC50 (PI3K-α; preincubation 60 Min): 387 nM | Time Dependence Observed? BRAF (V599E) (BRAF (V599E); 15 vs 60 Min preincubation): No | IC50 (BRAF (V599E); preincubation 15 Min): 194 nM | IC50 (BRAF (V599E); preincubation 60 Min): 194 nM | Time Dependence Observed? PI3K-β (PI3K-β; 15 vs 60 Min preincubation): Yes | IC50 (PI3K-β; preincubation 15 Min): 12600 nM | IC50 (PI3K-β; preincubation 60 Min): 2910 nM | Time Dependence Observed? ARAF (ARAF; 15 vs 60 Min preincubation): Yes | IC50 (ARAF; preincubation 15 Min): 1390 nM | IC50 (ARAF; preincubation 60 Min): 1300 nM | Time Dependence Observed? RAF1 (RAF1; 15 vs 60 Min preincubation): Yes | IC50 (RAF1; preincubation 15 Min): 96.5 nM | IC50 (RAF1; preincubation 60 Min): 81.3 nM | Time Dependence Observed? PI3K-δ (PI3K-δ; 15 vs 60 Min preincubation): Yes | IC50 (PI3K-δ; preincubation 15 Min): 3180 nM | IC50 (PI3K-δ; preincubation 60 Min): 1120 nM | Time Dependence Observed? P38a/MAPK14 (P38a/MAPK14; 15 vs 60 Min preincubation): No | IC50 (P38a/MAPK14; preincubation 15 Min): 150 nM | IC50 (P38a/MAPK14; preincubation 60 Min): 150 nM | Time Dependence Observed? c-Kit (c-Kit; 15 vs 60 Min preincubation): No | IC50 (c-Kit; preincubation 15 Min): 772 nM | IC50 (c-Kit; preincubation 60 Min): 987 nM | Time Dependence Observed? TNK1 (TNK1; 15 vs 60 Min preincubation): No | IC50 (TNK1; preincubation 15 Min): 210 nM | IC50 (TNK1; preincubation 60 Min): 241 nM
